Columns and labels:
AK8 = target: T1, AK8 (Homo sapiens, UniProt Q96MA6); experiment: AMP-agarose pull-down, anti-FLAG immunoblot; format: binding; settings: AMP immobilised on agarose, preferentially the αAH-AMP resin; 500 mM NaCl lysis buffer; labelled compound
T1 sequence (Q96MA6 1-479): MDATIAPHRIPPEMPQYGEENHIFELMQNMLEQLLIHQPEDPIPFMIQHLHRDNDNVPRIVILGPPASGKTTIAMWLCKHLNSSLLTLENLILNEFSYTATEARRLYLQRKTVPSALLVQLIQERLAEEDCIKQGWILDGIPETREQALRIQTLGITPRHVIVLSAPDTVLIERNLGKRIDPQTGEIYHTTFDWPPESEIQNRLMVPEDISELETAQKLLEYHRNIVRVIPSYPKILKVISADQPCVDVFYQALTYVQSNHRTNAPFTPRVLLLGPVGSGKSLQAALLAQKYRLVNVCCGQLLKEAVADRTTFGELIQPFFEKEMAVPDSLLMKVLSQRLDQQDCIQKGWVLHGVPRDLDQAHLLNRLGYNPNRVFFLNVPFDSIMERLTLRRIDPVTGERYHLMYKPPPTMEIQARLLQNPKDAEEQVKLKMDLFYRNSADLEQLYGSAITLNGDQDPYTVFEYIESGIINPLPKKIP

CFAP45 = target: T2, CFAP45 (Homo sapiens, UniProt Q9UL16); experiment: AMP-agarose pull-down, immunoblot or silver stain; format: binding; settings: AMP immobilised on agarose, best with the 6AH-AMP resin; sperm eluates released with 100 mM free 5'-AMP; 500 mM NaCl lysis buffer, pH 8.0, 4 °C; labelled compound
T2 construct: full length, 551 aa, 66 kDa
T2 sequence (Q9UL16 whole entry): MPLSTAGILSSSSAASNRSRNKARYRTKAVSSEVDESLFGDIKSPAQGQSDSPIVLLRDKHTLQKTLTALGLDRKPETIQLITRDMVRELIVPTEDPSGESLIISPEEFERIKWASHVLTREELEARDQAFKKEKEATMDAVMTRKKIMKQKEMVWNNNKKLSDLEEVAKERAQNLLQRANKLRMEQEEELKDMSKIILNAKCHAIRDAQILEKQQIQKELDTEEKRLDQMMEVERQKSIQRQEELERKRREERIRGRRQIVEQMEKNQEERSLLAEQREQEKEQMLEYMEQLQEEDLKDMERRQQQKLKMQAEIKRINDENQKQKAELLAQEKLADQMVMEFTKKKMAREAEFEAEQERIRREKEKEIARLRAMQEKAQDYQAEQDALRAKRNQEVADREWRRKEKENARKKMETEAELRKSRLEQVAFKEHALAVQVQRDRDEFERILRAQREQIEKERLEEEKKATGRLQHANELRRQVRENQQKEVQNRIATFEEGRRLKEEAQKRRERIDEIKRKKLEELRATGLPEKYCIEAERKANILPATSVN

SMILES: Nc1ncnc2c1ncn2[C@@H]1O[C@H](COP(=O)(O)O)[C@@H](O)[C@H]1O [AMP]
- AMP-agarose pull-down, anti-FLAG immunoblot (AK8): NTAP-AK8 shows affinity to αAH-AMP-agarose following elution and IB with monoclonal anti-FLAG antibody
- AMP-agarose pull-down, immunoblot or silver stain (CFAP45): CFAP45 immunoprecipitates recovered from human sperm (see “Methods”) showed affinity to AMP, especially 6AH-AMP-agarose
